Measurements published in patent publication US20250042922A1, “KRAS MODULATING COMPOUNDS” (priority 2023, published 2025).

What was measured:
[1] = test system: cellular pERK in NCI-H441 (KRAS-G12V) cells; test: Cell based pERK assay, NCI-H441; conditions: Homo sapiens; NCI-H441 (KRAS-G12V), 2 hours incubation, HTRF phospho-ERK1/2; read-out: H441 PERK EC50
How it was run: (§1)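 Cells seeded overnight (5000 AsPC-1 or 7500 others per well; RPMI/10% FBS, DMEM/10% FBS for MIA-PaCa-2), treated with 1:3 serial dilutions for 2 h at 37 °C. Phospho-ERK1/2 (Thr202/Tyr204) measured by HTRF (665/615 nm) after overnight lysis, normalized to DMSO and saturating known-inhibitor controls.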

GDP-loaded KRAS-G12V = GDP-loaded KRAS-G12V (Homo sapiens, UniProt P01116, G12V); test: KRAS (GDP) biochemical TR-FRET probe displacement assay, G12V; format: binding; conditions: 2 hours
GDP-loaded KRAS-G12V, sequence (P01116 1-188 isoform P01116-2 G12V): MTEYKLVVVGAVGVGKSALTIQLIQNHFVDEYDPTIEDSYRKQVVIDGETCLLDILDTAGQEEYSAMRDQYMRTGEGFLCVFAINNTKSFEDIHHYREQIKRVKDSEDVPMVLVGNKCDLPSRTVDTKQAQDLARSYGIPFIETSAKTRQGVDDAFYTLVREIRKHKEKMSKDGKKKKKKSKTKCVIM
Procedure: (§2) Compounds are tested for binding to GDP-loaded wild-type KRAS (WT), KRAS-G12C, KRAS-G12D, and KRAS-G12V in a 384-well assay format using a TR-FRET probe displacement assay in buffer consisting of 50 mM Hepes (pH 7.4), 150 mM NaCl, 5 mM MgCl2 and 0.005% Tween-20. […] Compounds are serially diluted (1:3) in DMSO. The LabCyte ECHO Acoustic dispenser was used to pre-spot the assay plates (384-well Non-Binding Surface plates, Corning, Catalog #3824) with 50 nL of compound. 5 μL of 2X enzyme concentration is added to the pre-spotted plates and incubated for 30 minutes before adding 5 μL of 2X concentration of Eu-streptavidin and Cy-5 labelled probe (10 μL final reaction volume). The plates are incubated at room temperature for 2 hours before measuring TR-FRET ratio (665 nm/615 nm) on the Envision multimode plate reader. The ratios are normalized to a positive (saturating concentration of known inhibitor) and negative (DMSO) control and plotted against the log of compound concentration.

[2] = target: GDP-loaded wild-type KRAS (WT) (Homo sapiens, UniProt P01116); test: KRAS (GDP) biochemical TR-FRET probe displacement assay, WT; format: binding; conditions: 2 hours
GDP-loaded wild-type KRAS (WT), sequence (P01116 1-188 isoform P01116-2): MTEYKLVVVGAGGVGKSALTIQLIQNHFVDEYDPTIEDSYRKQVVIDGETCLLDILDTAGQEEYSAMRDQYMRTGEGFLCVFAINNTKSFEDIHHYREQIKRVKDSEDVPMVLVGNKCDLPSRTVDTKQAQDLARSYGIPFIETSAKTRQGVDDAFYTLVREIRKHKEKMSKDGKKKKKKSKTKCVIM
Procedure: as §2

[3] = test system: cellular pERK in Kuramochi (WT KRAS) cells; test: Cell based pERK assay, Kuramochi; conditions: Kuramochi (WT KRAS), 2 hours incubation, HTRF phospho-ERK1/2; read-out: Kuramochi pERK EC50
How it was run: as §1

GDP-loaded KRAS-G12D = GDP-loaded KRAS-G12D (Homo sapiens, UniProt P01116, G12D); test: KRAS (GDP) biochemical TR-FRET probe displacement assay, G12D; format: binding; conditions: 2 hours
GDP-loaded KRAS-G12D, sequence (P01116 1-188 isoform P01116-2 G12D): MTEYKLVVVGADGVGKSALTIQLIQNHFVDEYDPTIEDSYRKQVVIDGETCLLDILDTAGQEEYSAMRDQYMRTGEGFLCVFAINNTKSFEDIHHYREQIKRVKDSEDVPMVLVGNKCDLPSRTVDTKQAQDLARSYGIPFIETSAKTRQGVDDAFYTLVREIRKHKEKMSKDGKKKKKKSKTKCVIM
Procedure: as §2

[4] = test system: cellular pERK in MIA-PaCa-2 (KRAS-G12C) cells; test: Cell based pERK assay, MIA-PaCa-2; conditions: Homo sapiens; MIA-PaCa-2 (KRAS-G12C), 2 hours incubation, HTRF phospho-ERK1/2; read-out: MIAPaCa2 pERK EC50
How it was run: as §1

GDP-loaded KRAS-G12C = GDP-loaded KRAS-G12C (Homo sapiens, UniProt P01116, G12C); test: KRAS (GDP) biochemical TR-FRET probe displacement assay, G12C; format: binding; conditions: 2 hours
GDP-loaded KRAS-G12C, sequence (P01116 1-188 isoform P01116-2 G12C): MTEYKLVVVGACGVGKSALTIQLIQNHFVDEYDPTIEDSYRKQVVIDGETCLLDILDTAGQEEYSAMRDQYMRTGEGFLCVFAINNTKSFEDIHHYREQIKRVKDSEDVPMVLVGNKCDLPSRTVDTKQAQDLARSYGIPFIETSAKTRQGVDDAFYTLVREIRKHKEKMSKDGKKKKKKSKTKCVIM
Procedure: as §2

[5] = test system: cellular pERK in ASPC-1 (KRAS G12D) cells; test: Cell based pERK assay, ASPC-1; conditions: Homo sapiens, ASPC1; ASPC-1 (KRAS G12D), 2 hours incubation, HTRF phospho-ERK1/2; read-out: AsPC1 pERK EC50
How it was run: as §1

Structure (SMILES)	EC50 [1]	IC50 (GDP-loaded KRAS-G12V)	IC50 [2]	EC50 [3]	IC50 (GDP-loaded KRAS-G12D)	EC50 [4]	IC50 (GDP-loaded KRAS-G12C)	EC50 [5]
C[C@H]1Cc2nc(-c3ccc(F)c4sc(N)c(C#N)c34)c(F)c3nc(OCC45CCCN4CCC5)nc(c23)N2C[C@@]3(F)CC[C@](F)(N3)[C@H]12 [Example 4-14, 2-amino-7-fluoro-4-((5S,5aS,6R,9S)-1,6,9-trifluoro-5-methyl-12-((tetrahydro-1H-pyrrolizin-7a(5H)-yl)methoxy)-4,5,5a,6,7,8,9,10-octahydro-3,10a,11,13,14-pentaaza-6,9-methanonaphtho[1,8-ab]heptalen-2-yl)benzo[b]thiophene-3-carbonitrile]	5.29 nM	0.537 nM	0.321 nM	10.6 nM	1.15 nM	1.15 nM	0.534 nM	40.2 nM
N#Cc1c(N)sc2c(F)ccc(-c3nc4c5c(nc(OC[C@@]67CCCN6C[C@H](F)C7)nc5c3F)N3C[C@@]5(F)CC[C@](F)(N5)[C@@H]3CC4)c12 [Example 4-21, 2-amino-7-fluoro-4-((5aS,6R,9S)-1,6,9-trifluoro-12-(((2R,7aS)-2-fluorotetrahydro-1H-pyrrolizin-7a(5H)-yl)methoxy)-4,5,5a,6,7,8,9,10-octahydro-3,10a,11,13,14-pentaaza-6,9-methanonaphtho[1,8-ab]heptalen-2-yl)benzo[b]thiophene-3-carbonitrile]	1.1 nM	0.844 nM	0.18 nM	1.73 nM	2.32 nM	0.313 nM	0.363 nM	5.96 nM
Oc1cc(-c2nc3c4c(nc(OCC56CCCN5CCC6)nc4c2F)N2C[C@@]4(F)CC[C@](F)(N4)[C@H]2CCC3)c2c(OC(F)(F)F)c(F)ccc2c1 [Example 4-23, 6-fluoro-4-[(4S,7R,8R)-4,7,15-trifluoro-18-(1,2,3,5,6,7-hexahydropyrrolizin-8-ylmethoxy)-2,13,17,19,21-pentazapentacyclo[10.7.1.14,7.02,8.016,20]henicosa-1(19),12(20),13,15,17-pentaen-14-yl]-5-(trifluoromethoxy)naphthalen-2-ol]	6.87 nM	2.14 nM	0.502 nM	2.6 nM	3.65 nM	1.19 nM	0.592 nM	51.4 nM
Cn1ccc2cc(N)cc(-c3nc4c5c(nc(OCC67CCCN6CCC7)nc5c3F)N3C[C@@]5(F)CC[C@](F)(N5)[C@H]3CCC4)c2c1=O [Example 4-25]	> 1000 nM	> 100 nM	> 100 nM	> 1000 nM	> 100 nM	> 1000 nM	> 100 nM	> 1000 nM
C/C=C\c1c(Cl)cc2[nH]ncc2c1-c1nc2c3c(nc(OCC45CCCN4CCC5)nc3c1F)N1C[C@@]3(F)CC[C@](F)(N3)[C@H]1CCC2 [Example 4-26, (4S,7R,8R)-14-[6-chloro-5-[(Z)-prop-1-enyl]-1H-indazol-4-yl]-4,7,15-trifluoro-18-(1,2,3,5,6,7-hexahydropyrrolizin-8-ylmethoxy)-2,13,17,19,21-pentazapentacyclo[10.7.1.14,7.02,8.016,20]henicosa-1(19),12(20),13,15,17-pentaene]	31.4 nM	4.33 nM	1.85 nM	4.34 nM	6.69 nM	0.785 nM	1.24 nM	45.4 nM
C[C@H]1Cc2nc(-c3cc(O)cc4ccc(F)c(Cl)c34)c(F)c3nc(OCC45CCCN4CCC5)nc(c23)N2C[C@@]3(F)CC[C@](F)(N3)[C@H]12 [Example 4-30, 5-chloro-6-fluoro-4-((5S,5aS,6R,9S)-1,6,9-trifluoro-5-methyl-12-((tetrahydro-1H-pyrrolizin-7a(5H)-yl)methoxy)-4,5,5a,6,7,8,9,10-octahydro-3,10a,11,13,14-pentaaza-6,9-methanonaphtho[1,8-ab]heptalen-2-yl)naphthalen-2-ol]	4.88 nM	0.405 nM	0.092 nM	1.94 nM	0.869 nM	0.365 nM	0.194 nM	18 nM
C#Cc1c(F)ccc2cc(N)cc(-c3nc4c5c(nc(OC[C@@]67CCCN6[C@H](COC(C(F)(F)F)(C(F)(F)F)C(F)(F)F)CC7)nc5c3F)N3C[C@@]5(F)CC[C@](F)(N5)[C@@H]3[C@@H](C)C4)c12 [Example 4-36, 5-ethynyl-6-fluoro-4-((5S,5aS,6R,9S)-1,6,9-trifluoro-12-(((3S,7aS)-3-(((1,1,1,3,3,3-hexafluoro-2-(trifluoromethyl)propan-2-yl)oxy)methyl)tetrahydro-1H-pyrrolizin-7a(5H)-yl)methoxy)-5-methyl-4,5,5a,6,7,8,9,10-octahydro-3,10a,11,13,14-pentaaza-6,9-methanonaphtho[1,8-ab]heptalen-2-yl)naphthalen-2-amine]	> 1000 nM	> 100 nM	> 100 nM	671 nM	> 100 nM	> 1000 nM	> 100 nM	> 1000 nM
C#Cc1c(F)ccc2cc(O)cc(-c3c(F)c4c5c(nc(OC[C@@]67CCCN6C[C@H](F)C7)nc5c3F)N3C[C@@]5(F)CC[C@H](N5)[C@H]3CC4)c12 [Example 4-41, 5-ethynyl-6-fluoro-4-((1S,4S,14aR)-4,10,12-trifluoro-8-(((2R,7aS)-2-fluorotetrahydro-1H-pyrrolizin-7a(5H)-yl)methoxy)-1,2,3,4,5,13,14,14a-octahydro-1,4-epiminoazepino[1′,2′:1,7]azepino[2,3,4-de]quinazolin-11-yl)naphthalen-2-ol]	4.42 nM	0.949 nM	0.5 nM	8.27 nM	1.41 nM	0.501 nM	0.386 nM	29.7 nM
C[C@H]1Cc2nc(-c3cc(N)cc4ccc(F)c(Cl)c34)c(F)c3nc(OCC45CCCN4CCC5)nc(c23)N2C[C@@]3(F)CC[C@](F)(N3)[C@H]12 [Example 5-3]	9.64 nM	2.96 nM	0.266 nM	1.45 nM	7.83 nM	0.897 nM	1.55 nM	31.3 nM
Nc1cc(-c2nc3c4c(nc(OCC56CCCN5CCC6)nc4c2F)N2C[C@@]4(F)CC[C@](F)(N4)[C@H]2CCC3)c2c(OC(F)(F)F)c(F)ccc2c1 [Example 5-5, 6-fluoro-4-[(4S,7R,8R)-4,7,15-trifluoro-18-(1,2,3,5,6,7-hexahydropyrrolizin-8-ylmethoxy)-2,13,17,19,21-pentazapentacyclo[10.7.1.14,7.02,8.016,20]henicosa-1(19),12(20),13,15,17-pentaen-14-yl]-5-(trifluoromethoxy)naphthalen-2-amine]	221 nM	85 nM	18.5 nM	5.9 nM	≥ 100 nM	33.6 nM	21.6 nM	519 nM
C#Cc1c(F)c(F)cc2cc(N)cc(-c3nc4c5c(nc(OCC67CCCN6CCC7)nc5c3F)N3C[C@@]5(F)CC[C@](F)(N5)[C@@H]3[C@@H](C)C4)c12 [Example 5-7, 5-ethynyl-6,7-difluoro-4-((5S,5aS,6R,9S)-1,6,9-trifluoro-5-methyl-12-((tetrahydro-1H-pyrrolizin-7a(5H)-yl)methoxy)-4,5,5a,6,7,8,9,10-octahydro-3,10a,11,13,14-pentaaza-6,9-methanonaphtho[1,8-ab]heptalen-2-yl)naphthalen-2-amine]	3.1 nM	0.723 nM	0.116 nM	2.75 nM	1.03 nM	0.378 nM	0.311 nM	12.4 nM
